Laboratory results published in US20250250230A1, “HETEROCYCLIC COMPOUND” (TAKEDA PHARMACEUTICAL COMPANY LIMITED, priority 2022, published 2025).

The compounds below were run against T1, human orexin type 2 receptor (Homo sapiens, UniProt O43614) (assay: Measurement of orexin type 2 receptor agonist activity (calcium fluorescence, Fluo-4 AM, FDSS)). Conditions: test compound 3 μM; CHO cells expressing human OX2 receptor; DMSO = 0%, orexin A (human) = 100%.
T1 construct: expressed in transfected cells
T1 sequence (O43614 1-444): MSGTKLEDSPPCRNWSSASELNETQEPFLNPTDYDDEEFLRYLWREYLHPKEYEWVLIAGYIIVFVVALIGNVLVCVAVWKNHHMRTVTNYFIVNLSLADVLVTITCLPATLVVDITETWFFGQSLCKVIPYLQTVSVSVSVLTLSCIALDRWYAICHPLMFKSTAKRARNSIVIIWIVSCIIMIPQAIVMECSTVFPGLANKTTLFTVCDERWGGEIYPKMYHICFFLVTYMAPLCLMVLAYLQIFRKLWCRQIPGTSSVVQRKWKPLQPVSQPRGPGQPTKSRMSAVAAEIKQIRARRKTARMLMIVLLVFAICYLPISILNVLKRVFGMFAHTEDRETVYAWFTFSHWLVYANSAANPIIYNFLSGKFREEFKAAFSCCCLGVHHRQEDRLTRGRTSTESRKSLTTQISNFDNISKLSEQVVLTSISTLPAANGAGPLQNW
Type: cell-based
Method in brief: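 CHO-K1 cells stably expressing human OX2R were loaded with Fluo-4 AM (30 min 37 °C, 30 min RT) in HEPES-buffered HBSS with 0.1% BSA and probenecid. Calcium fluorescence was followed on FDSS for 2 min after compound addition; activity normalised to DMSO (0%) and 10 nM orexin A (100%).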

Row | Compound | OX2R agonist activity (3 μM, %) [%]
1 | Cc1ccc(C2CC2C(=O)N2CCC(NS(C)(=O)=O)C2)c(-c2ccccc2Cl)c1 (racemic) [Example 145, a mixture of rac-N-{(3R)-1-[(1R,2R)-2-(2′-chloro-5-methyl[1,1′-biphenyl]-2-yl)cyclopropane-1-carbonyl]pyrrolidin-3-yl}methanesulfonamide and rac-N-{(3S)-1-[(1R,2R)-2-(2′-chloro-5-methyl[1,1-biphenyl]-2-yl)cyclopropane-1-carbonyl]pyrrolidin-3-yl}methanesulfonamide] | 94
2 | CS(=O)(=O)NC1CCCN(C(=O)C2CC2c2ccc(F)cc2-c2c(F)cccc2F)C1 (racemic) [Example 152, a mixture of rac-N-{(3R)-1-[(1R,2R)-2-(2′,5,6′-trifluoro[1,1′-biphenyl]-2-yl)cyclopropane-1-carbonyl]piperidin-3-yl}methanesulfonamide and rac-N-{(3S)-1-[(1R,2R)-2-(2′,5,6′-trifluoro[1,1′-biphenyl]-2-yl)cyclopropane-1-carbonyl]piperidin-3-yl}methanesulfonamide] | 95
3 | CS(=O)(=O)NC1CCCN(C(=O)C2CC2c2ccc(F)cc2-c2c(F)cccc2F)CC1 (racemic) [Example 153, a mixture of rac-N-{(4R)-1-[(1R,2R)-2-(2′,5,6′-trifluoro[1,1′-biphenyl]-2-yl)cyclopropane-1-carbonyl]azepan-4-yl}methanesulfonamide and rac-N-{(4S)-1-[(1R,2R)-2-(2′,5,6′-trifluoro[1,1′-biphenyl]-2-yl)cyclopropane-1-carbonyl]azepan-4-yl}methanesulfonamide] | 100
4 | CC1CC(NS(C)(=O)=O)CN(C(=O)C2CC2c2ccccc2-c2c(F)cccc2F)C1 (racemic) [Example 158] | 106
5 | CCS(=O)(=O)NC1CCCCN(C(=O)C2CC2c2ccccc2-c2c(F)cccc2F)C1 (racemic) [Example 159, a mixture of rac-N-{(3R)-1-[(1R,2R)-2-(2′,6′-difluoro[1,1′-biphenyl]-2-yl)cyclopropane-1-carbonyl]azepan-3-yl}ethanesulfonamide and rac-N-{(3S)-1-[(1R,2R)-2-(2′,6′-difluoro[1,1′-biphenyl]-2-yl)cyclopropane-1-carbonyl]azepan-3-yl}ethanesulfonamide] | 101
6 | O=C(C1CC1c1ccccc1-c1c(F)cccc1F)N1CCCCC(NS(=O)(=O)C2CC2)C1 (racemic) [Example 161, a mixture of rac-N-{(3R)-1-[(1R,2R)-2-(2′,6′-difluoro[1,1′-biphenyl]-2-yl)cyclopropane-1-carbonyl]azepan-3-yl}cyclopropanesulfonamide and rac-N-{(3S)-1-[(1R,2R)-2-(2′,6′-difluoro[1,1′-biphenyl]-2-yl)cyclopropane-1-carbonyl]azepan-3-yl}cyclopropanesulfonamide] | 99
7 | CN(C)S(=O)(=O)NC1CCCCN(C(=O)C2CC2c2ccccc2-c2c(F)cccc2F)C1 (racemic) [Example 162, a mixture of rac-N′-{(3R)-1-[(1R,2R)-2-(2′,6′-difluoro[1,1′-biphenyl]-2-yl)cyclopropane-1-carbonyl]azepan-3-yl}-N,N-dimethylsulfuric diamide and rac-N′-{(3S)-1-[(1R,2R)-2-(2′,6′-difluoro[1,1′-biphenyl]-2-yl)cyclopropane-1-carbonyl]azepan-3-yl}-N,N-dimethylsulfuric diamide] | 106
8 | CN(C)S(=O)(=O)NC1CCCN(C(=O)C2CC2c2ccccc2-c2c(F)cccc2F)C1 (racemic) [Example 164, a mixture of rac-N′-{(3R)-1-[(1R,2R)-2-(2′,6′-difluoro[1,1′-biphenyl]-2-yl)cyclopropane-1-carbonyl]piperidin-3-yl}-N,N-dimethylsulfuric diamide and rac-N′-{(3S)-1-[(1R,2R)-2-(2′,6′-difluoro[1,1′-biphenyl]-2-yl)cyclopropane-1-carbonyl]piperidin-3-yl}-N,N-dimethylsulfuric diamide] | 104
9 | Cc1ccc(C2CC2C(=O)N2CCCC(NS(C)(=O)=O)C2)c(-c2c(F)cccc2F)c1 (racemic) [Example 166, a mixture of rac-N-{(3R)-1-[(1R,2R)-2-(2′,6′-difluoro-5-methyl[1,1′-biphenyl]-2-yl)cyclopropane-1-carbonyl]piperidin-3-yl}methanesulfonamide and rac-N-{(3S)-1-[(1R,2R)-2-(2′,6′-difluoro-5-methyl[1,1′-biphenyl]-2-yl)cyclopropane-1-carbonyl]piperidin-3-yl}methanesulfonamide] | 110
10 | Cc1ccc(C2CC2C(=O)N2CCCC(NS(C)(=O)=O)CC2)c(-c2c(F)cccc2F)c1 (racemic) [Example 167, a mixture of rac-N-{(4R)-1-[(1R,2R)-2-(2′,6′-difluoro-5-methyl[1,1′-biphenyl]-2-yl)cyclopropane-1-carbonyl]azepan-4-yl}methanesulfonamide and rac-N-{(4S)-1-[(1R,2R)-2-(2′,6′-difluoro-5-methyl[1,1′-biphenyl]-2-yl)cyclopropane-1-carbonyl]azepan-4-yl}methanesulfonamide] | 96
11 | CC1CCN(C(=O)C2CC2c2ccccc2-c2c(F)cccc2F)CC1NS(C)(=O)=O (racemic) [Example 185, a mixture of rac-N-{(3R,4R)-1-[(1R,2R)-2-(2′,6′-difluoro[1,1′-biphenyl]-2-yl)cyclopropane-1-carbonyl]-4-methylpiperidin-3-yl}methanesulfonamide and rac-N-{(3S,4S)-1-[(1R,2R)-2-(2′,6′-difluoro[1,1′-biphenyl]-2-yl)cyclopropane-1-carbonyl]-4-methylpiperidin-3-yl}methanesulfonamide] | 57
12 | CC1CCN(C(=O)C2CC2c2ccccc2-c2c(F)cccc2F)CCC1NS(C)(=O)=O (racemic) [Example 186] | 101
13 | CS(=O)(=O)NC1CCN(C(=O)C2CC2c2c(F)cccc2-c2ccccc2F)C1 (racemic) [Example 188, a mixture of rac-N-{(3R)-1-[(1R,2R)-2-(2′,3-difluoro[1,1′-biphenyl]-2-yl)cyclopropane-1-carbonyl]pyrrolidin-3-yl}methanesulfonamide and rac-N-{(3S)-1-[(1R,2R)-2-(2′,3-difluoro[1,1′-biphenyl]-2-yl)cyclopropane-1-carbonyl]pyrrolidin-3-yl}methanesulfonamide] | 86
14 | CS(=O)(=O)NC1CCCN(C(=O)C2CC2c2ncccc2-c2c(F)cccc2F)C1 (racemic) [Example 189, a mixture of rac-N-[(3R)-1-{(1R,2R)-2-[3-(2,6-difluorophenyl)pyridin-2-yl]cyclopropane-1-carbonyl}piperidin-3-yl]methanesulfonamide and rac-N-[(3S)-1-{(1R,2R)-2-[3-(2,6-difluorophenyl)pyridin-2-yl]cyclopropane-1-carbonyl}piperidin-3-yl]methanesulfonamide] | 67
